Here are results for 1 molecule from US20060247303A1, “7H-dibenzo[b,g][1,5]dioxocin-5-one derivatives and use thereof” (BAYER HEALTHCARE AG, priority 2002, published 2006).

Assay [1] deals with T1, CETP activity in the serum (Homo sapiens, UniProt P11597).
T1 construct: from tissue; host or cells: serum of transgenic hCETP mice
T1 sequence (P11597 18-493): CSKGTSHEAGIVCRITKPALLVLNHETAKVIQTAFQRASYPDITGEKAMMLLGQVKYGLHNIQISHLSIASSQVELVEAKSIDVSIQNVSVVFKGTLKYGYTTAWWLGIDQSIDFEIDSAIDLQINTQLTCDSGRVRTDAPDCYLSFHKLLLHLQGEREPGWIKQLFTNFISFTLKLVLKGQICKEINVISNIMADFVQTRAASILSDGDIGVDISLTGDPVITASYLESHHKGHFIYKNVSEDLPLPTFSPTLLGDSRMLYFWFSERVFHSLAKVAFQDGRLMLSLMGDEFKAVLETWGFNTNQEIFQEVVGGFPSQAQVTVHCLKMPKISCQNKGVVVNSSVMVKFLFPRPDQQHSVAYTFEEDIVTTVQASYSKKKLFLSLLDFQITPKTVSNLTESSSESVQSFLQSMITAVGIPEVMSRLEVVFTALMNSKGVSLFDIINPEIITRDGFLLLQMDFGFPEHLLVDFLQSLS
As to the kind of experiment: Measurement of the ex vivo activities on transgenic hCETP mice. Type of assay: in vivo. The settings on record: mouse, 30 mg/kg oral, serum cholesteryl ester transport. How it is done: To test for CETP-inhibitory activity, the substances are administered orally using a stomach tube to transgenic hCETP mice bred in-house (Dinchuk et al. BBA (1995) 1295-301). To this end, male animals are randomly assigned to groups having an equal number of animals, as a rule n=3, one day before the start of the experiment. Before administration of the substance, blood is taken from each mouse by puncture of the retro-orbital venous plexus for the determination of its basal CETP activity in the serum (T1). The test substance is then administered to the animals using the stomach tube. At specific times after administration of the test substance, blood is taken from the animals by puncture a second time (T2), as a rule 0.5, or 1 and 2 h after substance administration, but if appropriate this can also be carried out at another time.
In order to be able to assess the inhibitory activity of a substance, for each time, i.e. 0.5 or 1 or 2 h, a corresponding control group is employed whose animals only receive the formulating agent without substance. In the control animals, the second blood sampling per animal is carried out as in the substance-treated animals in order to be able to determine the change in the CETP activity without inhibitor over the corresponding experimental time interval (0.5, 1 or 2 h).
After termination of the clotting, the blood samples are centrifuged and the serum is removed by pipette.
For the determination of the CETP activity, the cholesteryl ester transport over 4 h is determined. To this end, as a rule 2 μl of serum are employed in the test batch and the test is carried out as described under “CETP fluorescence test”.
The differences in the cholesteryl ester transport [pM CE*/h (T2)−pM CE*/h (T1)] are calculated for each animal and averaged in the groups. A substance which at one of the times reduces the cholesteryl ester transport by >30% is regarded as active.

The target in a further assay is T2, CETP (Homo sapiens, UniProt P11597).
T2 construct: enriched CETP fraction, obtained from human plasma by means of hydrophobic chromatography; from tissue; host or cells: human plasma
T2 sequence (P11597 18-493): T1 sequence (P11597 18-493)
Description: CETP fluorescence test. Type of assay: biochemical. The settings on record: CETP from human plasma, transfer of fluorescent cholesterol ester between liposomes, 37° C., 4 hours; read-out: IC50 [nM] Fluor. test. How it is done: CETP is obtained in partially purified form from human plasma by differential centrifugation and column chromatography and used for the test. To this end, human plasma is adjusted to a density of 1.21 g per ml using NaBr and centrifuged at 4° C. at 50 000 rpm for 18 h. The bottom fraction (d>1.21 g/ml) is applied to a Sephadex® Phenyl-Sepharose 4B (Pharmacia) column, washed with 0.15 M NaCl/0.001 M tris HCl pH 7.4 and then eluted with distilled water. The CETP-active fractions are pooled, dialysed against 50 mM sodium acetate pH 4.5 and applied to a CM-Sepharose® column (Pharmacia). The mixture is then eluted using a linear gradient (0-1 M NaCl). The pooled CETP fractions are dialysed against 10 mM Tris HCl pH 7.4 and then further purified by chromatography on a Mono Q® column (Pharmacia).
Measurement of the CETP-catalysed transfer of a fluorescent cholesterol ester between liposomes—modified according to the procedure of Bisgaier et al., J. Lipid Res. 34, 1625 (1993):
For the production of the donor liposomes, 1 mg of cholesteryl 4,4-difluoro-5,7-dimethyl-4-bora-3a,4a-diaza-s-indacene-3-dodecanoate (cholesteryl BODIPY® FL C12, Molecular Probes) is dissolved in 600 μl of dioxane with 5.35 mg of triolein and 6.67 mg of phosphatidylcholine with gentle warming in an ultrasonic bath and this solution is added very slowly with ultrasonication to 63 ml of 50 mM tris/HCl, 150 mM NaCl, 2 mM EDTA buffer pH 7.3 at RT.
The suspension is then ultrasonicated under an N2 atmosphere for 30 minutes in the Braukson ultrasonic bath at about 50 watts, the temperature being kept at about 20° C.
The acceptor liposomes are obtained analogously from 86 mg of cholesteryl oleate, 20 mg of triolein and 100 mg of phosphatidylcholine dissolved in 1.2 ml of dioxane and 114 ml of above buffer by ultrasonication at 50 watts (20° C.) for 30 minutes.
For testing, a test mix consisting of 1 part of above buffer, 1 part of donor liposomes and 2 parts of acceptor liposomes is used.
80 μl of test mix are treated with 1-3 μg of enriched CETP fraction, obtained from human plasma by means of hydrophobic chromatography, and 2 μl of the substance to be investigated in DMSO and incubated at 37° C. for 4 hours.
The change in the fluorescence at 485/535 nm is a measure of the CE transfer; the inhibition of the transfer in comparison to the control batch without substance is determined.

A further assay deals with HDL cholesterol. As to the kind of experiment: Measurement of the in vivo activity in Syrian golden hamsters. The settings on record: peroral. The procedure:
In experiments for the determination of the oral action on lipoproteins and triglycerides, test substance dissolved in DMSO and 0.5% suspended in Tylose are administered perorally by means of a stomach tube to Syrian golden hamsters bred in-house. For the determination of the CETP activity, before the start of the experiment blood is taken by retro-orbital puncture (about 250 μl). The test substances are then administered perorally by means of a stomach tube. The control animals receive identical volumes of solvent without test substance. […]
Clotting is terminated by incubation of 4° C. overnight, then centrifugation is carried out for 10 minutes at 6000×g. The content of cholesterol and triglycerides in the serum thus obtained is determined with the aid of modified commercially obtainable enzymatic tests (Ecolin 25 Cholesterol, 1.14830.0001 Merck Diagnostica; Ecoline 25 Triglycerides, 1.14856.0001 Merck Diagnostica). […]
10 μl of serum dilution are treated with 200 μl of Ecoline 25 reagent in 96-hole plates and incubated for 10 minutes at room temperature. The optical density is then determined at a wavelength of 490 nm using an automatic plate reader. The triglyceride or cholesterol concentration contained in the samples is determined with the aid of a standard curve measured in parallel. […]

Broadly, the IC50 is the point on the concentration scale where inhibition reaches its midpoint.

Read-outs that look alike come from different tables or passages of the source.

For the molecule `COc1c([C@@H](O)CC(C)(C)C)ccc2c1C(=O)OCc1c(Cl)c(C)c(Br)c(OC(=O)C3(C)C4CCC3CC4)c1O2` (some centres unmarked) [Example C-63], the inhibition at 30 mg/kg in assay [1] (1 h after administration, read-out: % inhibition at 30 mg/kg 1 h) was determined as 83%; in assay [1] (3 h after administration, read-out: % inhibition at 30 mg/kg 3 h), 65%; in assay [1] (6 h after administration, read-out: % inhibition at 30 mg/kg 6 h), 48%. The IC50 at CETP came to 32 nM. Moreover, the “% increase of HDL after 24 h (dose: 2 × 30 mg/kg)” value in the assay on HDL cholesterol is listed as 17%.
